Laboratory results as given in patent US10988459B2 (priority 2015, dated 2021).

Target: human RIP1 kinase domain (2-375) (Homo sapiens (Human), UniProt Q13546)
Test: biochemical
Format: biochemical
Conditions: Table 1; apparent Ki (Morrison tight-binding fit); 50 nM RIP1 kinase domain, 50 uM ATP, 2 hours incubation; read-out: RIP1 Ki
Summary of the method: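 50 nM purified kinase domain from baculovirus-infected insect cells, incubated 2 h with compound in 50 mM Hepes pH 7.5, 30 mM MgCl2, 1 mM DTT, 50 uM ATP, 0.002% Brij-35, 0.5% DMSO. ADP formation read by Transcreener FP at 633 nm excitation. Ki^app fitted with the Morrison tight-binding equation.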

Sequence of human RIP1 kinase domain (2-375) (Q13546 2-375): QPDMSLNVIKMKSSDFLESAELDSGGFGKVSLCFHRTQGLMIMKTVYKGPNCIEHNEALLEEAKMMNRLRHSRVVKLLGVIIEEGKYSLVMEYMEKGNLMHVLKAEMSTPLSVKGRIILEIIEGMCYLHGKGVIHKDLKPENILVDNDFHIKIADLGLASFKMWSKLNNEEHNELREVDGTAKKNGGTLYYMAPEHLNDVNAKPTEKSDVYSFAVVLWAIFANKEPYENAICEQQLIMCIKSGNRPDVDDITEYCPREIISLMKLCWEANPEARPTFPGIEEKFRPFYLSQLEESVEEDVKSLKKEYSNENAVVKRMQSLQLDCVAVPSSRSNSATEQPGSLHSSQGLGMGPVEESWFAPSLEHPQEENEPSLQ

Row | SMILES | Ki [nM]
1 | CN1C(=O)[C@@H](NC(=O)c2nnc(Cc3ccccc3)[nH]2)CCn2nccc21 [Example 27, (S)-5-benzyl-N-(4-methyl-5-oxo-5,6,7,8-tetrahydro-4H-pyrazolo [1,5-a][1,3]diazepin-6-yl)-4H-1,2,4-triazole-3-carboxamide] | 45.4
2 | CC1CCc2[nH]nc(C(=O)N[C@H]3COc4ccccc4NC3=O)c2C1 (stereo partly drawn) [Example 57, 5-methyl-N-((S)-4-oxo-2,3,4,5-tetrahydrobenzo[b][1,4]oxazepin-3-yl)-4,5,6,7-tetrahydro-1H-indazole-3-carboxamide] | 276
3 | CN1C(=O)[C@@H](NC(=O)c2noc3c2CC(C(C)(C)C)CC3)COc2ccccc21 (stereo partly drawn) [Example 64, 5-(tert-butyl)-N-((S)-5-methyl-4-oxo-2,3,4,5-tetrahydrobenzo[b][1,4]oxazepin-3-yl)-4,5,6,7-tetrahydrobenzo[d]isoxazole-3-carboxamide] | 73.5

Same assay, conditions: Table 5; apparent Ki (Morrison tight-binding fit); 50 nM RIP1 kinase domain, 50 uM ATP, 2 hours incubation; read-out: Ki

Row | Ki [nM] | SMILES
4 | 12 | CN1C(=O)[C@@H](NC(=O)c2ncc3c(n2)[C@](C)(C(F)(F)F)OC3)COc2ccccc21 [Example 745, (7R)-7-methyl-N-[(3S)-5-methyl-4-oxo-2,3-dihydro-1,5-benzoxazepin-3-yl]-7-(trifluoromethyl)-5H-furo[3,4-d]pyrimidine-2-carboxamide]

Same assay, conditions: human RIP1 kinase domain (2-375), 50 uM ATP, 2 hours incubation, Transcreener ADP assay; read-out: RIP1 Ki

Row | Ki [nM] | SMILES
5 | 801 | CN1C(=O)C(NC(=O)c2nnc(Cc3ccc(F)cc3)[nH]2)CCCn2nccc21 (stereo not shown) [Example 96, 5-(4-fluorobenzyl)-N-(4-methyl-5-oxo-4,5,6,7,8,9-hexahydropyrazolo[1,5-a][1,3]diazocin-6-yl)-4H-1,2,4-triazole-3-carboxamide]
6 | 139 | CN1C(=O)[C@@H](NC(=O)c2cn(Cc3ccccc3)nn2)CCn2nc(C3CC3)cc21 (single isomer, unassigned) [Example 112]
7 | 24.1 | CN1C(=O)[C@@H](NC(=O)c2nc3n(n2)[C@H](c2ccccc2)CC3)CCn2nccc21 (single isomer, unassigned) [Example 126]

Same assay, conditions: human RIP1 kinase domain (2-375), Transcreener ADP assay, 50 uM ATP, 2 hours incubation; read-out: RIP1 Ki

Row | Ki [nM] | SMILES
8 | 92.1 | Cc1cc2n(n1)CCC(NC(=O)c1ncn(Cc3ccc(Cl)cc3)n1)C(=O)N2C (stereo not shown) [Example 249, 1-(4-chlorobenzyl)-N-(2,4-dimethyl-5-oxo 6,7,8-tetrahydro-4H-pyrazolo[1,5-a][1,3]diazepin-6-yl)-1H-1,2,4-triazole-3-carboxamide]
9 | 789 | Cc1cccc(Cn2cnc(C(=O)NC3CCn4nc(C5CC5)cc4N(C)C3=O)n2)n1 (stereo not shown) [Example 259, N-(2-cyclopropyl-4-methyl-5-oxo-5,6,7,8-tetrahydro-4H-pyrazolo[1,5-a][1,3]diazepin-6-yl)-1-((6-methylpyridin-2-yl)methyl)-1H-1,2,4-triazole-3-carboxamide]
10 | 516 | Cc1ccc(Cn2cnc(C(=O)NC3CCn4nc(C5CC5)cc4N(C)C3=O)n2)cn1 (stereo not shown) [Example 278, N-(2-cyclopropyl-4-methyl-5-oxo-5,6,7,8-tetrahydro-4H-pyrazolo[1,5-a][1,3]diazepin-6-yl)-1-((6-methylpyridin-3-yl)methyl)-1H-1,2,4-triazole-3-carboxamide]
11 | 419 | Cc1ncn2c1N(C)C(=O)C(NC(=O)c1cn(Cc3ccccc3)nn1)CC2 (stereo not shown) [Example 227, 1-benzyl-N-(1,9-dimethyl-2-oxo-2,3,4,5-tetrahydro-1H-imidazo[1,5-a][1,3]diazepin-3-yl)-1H-1,2,3-triazole-4-carboxamide]
12 | 104 | CN1C(=O)C(NC(=O)c2ncn(CC3CCCC3)n2)CCn2nc(C3CC3)cc21 (stereo not shown) [Example 261, 1-(cyclopentylmethyl)-N-(2-cyclopropyl-4-methyl-5-oxo-5,6,7,8-tetrahydro-4H-pyrazolo[1,5-a][1,3]diazepin-6-yl)-1H-1,2,4-triazole-3-carboxamide]
13 | 92.4 | CN1C(=O)[C@H](NC(=O)c2nnc(Cc3ccccc3)[nH]2)CCn2nc(C3CC3(F)F)cc21 (stereo partly drawn) [Example 286, 5-benzyl-N-((6R)-2-(2,2-difluorocyclopropyl)-4-methyl-5-oxo-5,6,7,8-tetrahydro-4H-pyrazolo[1,5-a][1,3]diazepin-6-yl)-4H-1,2,4-triazole-3-carboxamide]

Same assay, conditions: read-out: RIP1 Ki

Row | SMILES | Ki [nM]
14 | CN1C(=O)[C@@H](NC(=O)c2n[nH]c3c2CC(C)(C)CC3)COc2ccccc21 [Example 18, 5,5-dimethyl-N-[(3S)-5-methyl-4-oxo-2,3-dihydro-1,5-benzoxazepin-3-yl]-1,4,6,7-tetrahydroindazole-3-carboxamide] | 415

Same assay, conditions: tight-binding apparent inhibition constant; human RIP1 kinase domain (2-375) 50 nM, 50 uM ATP, 2 hours; read-out: Ki

Row | Ki [nM] | SMILES
15 | 147 | CN1C(=O)[C@@H](NC(=O)c2nc3n(n2)C(C2CCOCC2)CCC3)COc2ccccc21 (stereo partly drawn) [Example 408, N—((S)-5-methyl-4-oxo-2,3,4,5-tetrahydrobenzo[b][1,4]oxazepin-3-yl)-5-(tetrahydro-2H-pyran-4-yl)-5,6,7,8-tetrahydro-[1,2,4]triazolo[1,5-a]pyridine-2-carboxamide]
16 | 52 | CN1C(=O)[C@@H](NC(=O)c2ncn(C[C@H]3C[C@@H](C)C3)n2)CCn2nccc21 [Example 496, N—((S)-4-methyl-5-oxo-5,6,7,8-tetrahydro-4H-pyrazolo[1,5-a][1,3]diazepin-6-yl)-1-(((1S,3R)-3-methylcyclobutyl)methyl)-1H-1,2,4-triazole-3-carboxamide]
17 | 480 | CCCC1(C)OCc2cnc(C(=O)N[C@H]3CCn4nccc4N(C)C3=O)nc21 (stereo partly drawn) [Example 566, 7-methyl-7-propyl-N-[(6S)-4-methyl-5-oxo-7,8-dihydro-6H-pyrazolo[1,5-a][1,3]diazepin-6-yl]-5H-furo[3,4-d]pyrimidine-2-carboxamide]
18 | 355 | CN1C(=O)C(NC(=O)c2ncn(Cc3ccccc3)n2)CCn2nc(CN3CC(F)C3)cc21 (single isomer, unassigned) [Example 450, 1-benzyl-N-(2-((3-fluoroazetidin-1-yl)methyl)-4-methyl-5-oxo-5,6,7,8-tetrahydro-4H-pyrazolo[1,5-a][1,3]diazepin-6-yl)-1H-1,2,4-triazole-3-carboxamide]
19 | 21 | O=C(N[C@H]1CCc2cc(F)cc(F)c2NC1=O)c1nc2n(n1)[C@H](C(F)(F)F)CCC2 (single isomer, unassigned) [Example 430]
20 | 840 | Cc1cc2n(n1)CC[C@H](NC(=O)c1ncc3c(n1)C1(CCOCC1)OC3)C(=O)N2C [Example 512, N-[(6S)-2,4-dimethyl-5-oxo-7,8-dihydro-6H-pyrazolo[1,5-a][1,3]diazepin-6-yl]spiro[5H-furo[3,4-d]pyrimidine-7,4′-tetrahydropyran]-2-carboxamide]
21 | 3.5 | CN1C(=O)[C@@H](NC(=O)c2ncn(Cc3ccccc3Cl)n2)CCn2nc(C3CC3)cc21 [Example 522]
22 | 210 | CN1C(=O)[C@H](NC(=O)c2nnc(Cc3ccc(F)cc3)[nH]2)CCn2nc(C(F)(F)F)cc21 [Example 550]
23 | 4.8 | Cc1cc(F)c2c(c1)OC[C@H](NC(=O)c1ncc3cnn(C(C)C)c3n1)C(=O)N2 [Example 606, 1-isopropyl-N-[(3S)-6-fluoro-8-methyl-4-oxo-3,5-dihydro-2H-1,5-benzoxazepin-3-yl]pyrazolo[3,4-d]pyrimidine-6-carboxamide]
24 | 8.43 | CCC[C@@H]1CCCc2nc(C(=O)N[C@H]3CCc4cc(F)cc(F)c4NC3=O)nn21 (single isomer, unassigned) [Example 437]
25 | 74 | Cc1cc2n(n1)CC[C@H](NC(=O)c1ncn(Cc3ncccc3Cl)n1)C(=O)N2C [Example 657, 1-[(3-chloro-2-pyridyl)methyl]-N-(6S)-2,4-dimethyl-5-oxo-7,8-dihydro-6H-pyrazolo[1,5-a][1,3]diazepin-6-yl-1,2,4-triazole-3-carboxamide]
26 | 24 | CN1C(=O)[C@@H](NC(=O)c2ncn(Cc3ccccc3C(F)(F)F)n2)CCn2nccc21 [Example 583, N-(6S)-4-methyl-5-oxo-7,8-dihydro-6H-pyrazolo[1,5-a][1,3]diazepin-6-yl]-1-[[2-(trifluoromethyl)phenyl]methyl-1,2,4-triazole-3-carboxamide]
27 | 35 | Cc1cn2c(n1)N(C)C(=O)[C@H](NC(=O)c1ncn(Cc3ccccc3F)n1)CC2 [Example 659, 1-[(2-fluorophenyl)methyl]-N-(7R)-2,9-dimethyl-8-oxo-6,7-dihydro-5H-imidazo[1,2-a][1,3]diazepin-7-yl-1,2,4-triazole-3-carboxamide]
28 | 7 | CN1C(=O)[C@@H](NC(=O)c2ncn(Cc3ccccc3)n2)CCn2nc(CC3CC3)cc21 [Example 459, (S)-1-benzyl-N-(2-(cyclopropylmethyl)-4-methyl-5-oxo-5,6,7,8-tetrahydro-4H-pyrazolo[1,5-a][1,3]diazepin-6-yl)-1H-1,2,4-triazole-3-carboxamide]
29 | 345 | CN1C(=O)C(NC(=O)c2ncn(Cc3ccccc3)n2)CCn2nc(C(C)(C)F)cc21 (single isomer, unassigned) [Example 369, 1-benzyl-N-[2-(1-fluoro-1-methyl-ethyl)-4-methyl-5-oxo-7,8-dihydro-6H-pyrazolo[1,5-a][1,3]diazepin-6-yl]-1,2,4-triazole-3-carboxamide]
30 | 330 | CN1C(=O)[C@@H](NC(=O)c2ncc3c(n2)C2(CCOCC2)OC3)COc2ccccc21 [Example 510]
31 | 24.4 | CN1C(=O)[C@@H](NC(=O)c2nc3n(n2)[C@@H](c2ccccc2)CCC3)CCn2nccc21 (racemic) [Example 385, (R)—N—((S)-4-methyl-5-oxo-5,6,7,8-tetrahydro-4H-pyrazolo[1,5-a][1,3]diazepin-6-yl)-5-phenyl-5,6,7,8-tetrahydro-[1,2,4]triazolo[1,5-a]pyridine-2-carboxamide]
